Source: article PMC3478977, “Enabling structure-based drug design of Tyk2 through co-crystallization with a stabilizing aminoindazole inhibitor” (BMC Structural Biology, 2012)

Tests used:
[1] = target: T1, Jak1 (Homo sapiens, UniProt P23458); assay: trFRET kinase activity assay, Jak1; format: biochemical; settings: Jak1 (845–1142) GST fusion, 1 μM ATP, mean and standard error; read-out: IC50, inhibition of Jak1 enzyme activity
T1 construct: Jak1 (residues 845–1142) was expressed in Sf9 cells; GST; made in house; host or cells: Sf9 insect cells
Procedure: (§1) After 60 min incubation at room temperature, the reaction was quenched by addition of EDTA (final conc. 100 μM) and developed by addition of revelation reagents (final approximate concentrations: 30 mM HEPES pH 7.0, 0.06% BSA, 0.006% Tween-20, 0.24 M KF, 80 ng/mL PT66K (europium-labelled anti-phosphotyrosine antibody, cat #61T66KLB, Cisbio, Bedford, MA) and 3.12 μg/mL SAXL (Phycolink streptavidin-allophycocyanin acceptor, cat #PJ25S, Prozyme, San Leandro, CA)). The developed reaction was incubated in the dark either at 4°C overnight or at room temperature for ~1 h, then read with a time-resolved fluorescence detector (Rubystar, BMG Labtech) using a 337 nm laser for excitation and emission wavelengths of 620 nm and 665 nm. Within the linear range of the assay, this signal is directly related to phosphorylated product and was used to calculate IC50 values. Typically, seven-point inhibitor dilutions (5-fold; from 50 μM to 0.0032 μM) were used. IC50 values were calculated by fitting the following equation: […]
(§2) where [I] is total inhibitor concentration, Y is the percentage of activity (relative to that seen in no-inhibitor control) at a given inhibitor concentration, and Ymax is the maximum activity generated in the absence of inhibitor.
(§3) Purified Jak2 and Jak3 were purchased from Upstate/Millipore (cat numbers #14–640 and #14–629). […]

[2] = target: T2, Jak3 (Homo sapiens, UniProt P52333); assay: trFRET kinase activity assay, Jak3; format: biochemical; settings: 1 μM ATP, mean and standard error; read-out: IC50, inhibition of Jak3 enzyme activity
T2 construct: purchased Upstate/Millipore #14–629
T2 sequence (P52333 1-1124): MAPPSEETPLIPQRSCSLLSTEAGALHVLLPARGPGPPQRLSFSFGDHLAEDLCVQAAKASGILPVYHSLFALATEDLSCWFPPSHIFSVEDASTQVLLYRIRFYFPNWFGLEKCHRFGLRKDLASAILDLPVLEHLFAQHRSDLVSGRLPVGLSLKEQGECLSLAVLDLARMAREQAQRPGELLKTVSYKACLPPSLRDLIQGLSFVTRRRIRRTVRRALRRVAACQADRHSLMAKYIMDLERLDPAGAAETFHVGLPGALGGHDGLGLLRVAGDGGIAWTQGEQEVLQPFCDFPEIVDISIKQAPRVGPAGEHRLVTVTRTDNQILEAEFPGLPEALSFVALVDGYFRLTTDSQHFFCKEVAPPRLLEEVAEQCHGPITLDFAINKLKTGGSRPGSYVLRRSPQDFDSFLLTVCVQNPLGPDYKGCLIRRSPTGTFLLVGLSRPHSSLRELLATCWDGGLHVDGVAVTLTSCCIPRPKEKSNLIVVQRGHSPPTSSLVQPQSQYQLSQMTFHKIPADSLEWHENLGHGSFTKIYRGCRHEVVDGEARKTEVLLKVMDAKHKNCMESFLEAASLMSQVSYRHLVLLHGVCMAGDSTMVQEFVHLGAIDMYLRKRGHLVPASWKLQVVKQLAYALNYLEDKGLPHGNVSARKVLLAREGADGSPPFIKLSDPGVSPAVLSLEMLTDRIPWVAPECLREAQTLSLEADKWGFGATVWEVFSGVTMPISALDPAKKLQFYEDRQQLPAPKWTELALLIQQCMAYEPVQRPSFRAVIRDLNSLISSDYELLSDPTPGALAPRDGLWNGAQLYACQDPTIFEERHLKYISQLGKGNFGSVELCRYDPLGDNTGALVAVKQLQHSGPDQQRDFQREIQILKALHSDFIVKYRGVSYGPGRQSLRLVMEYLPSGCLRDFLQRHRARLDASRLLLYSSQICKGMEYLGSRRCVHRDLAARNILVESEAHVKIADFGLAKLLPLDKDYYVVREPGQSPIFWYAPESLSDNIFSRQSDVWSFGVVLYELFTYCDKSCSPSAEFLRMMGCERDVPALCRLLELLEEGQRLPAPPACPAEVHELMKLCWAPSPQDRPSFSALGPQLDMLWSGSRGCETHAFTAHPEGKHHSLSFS
Procedure: as §1, §2, §3

[3] = target: T3, Jak2 (Homo sapiens, UniProt O60674); assay: trFRET kinase activity assay, Jak2; format: biochemical; settings: 1 μM ATP, mean and standard error; read-out: IC50, inhibition of Jak2 enzyme activity
T3 construct: purchased Upstate/Millipore #14–640
Procedure: as §1, §2, §3

[4] = test system: Mouse Tyk2 kinase domain (residues 870–1170; Asp1016Ala mutant); assay: Partial proteolysis of Tyk2 kinase domain by thermolysin with and without ligand; settings: 30 μM compound, sum of ~27 and ~29 kDa peaks, 0 to 90 minutes, room temperature
Procedure: Mouse Tyk2 kinase domain (0.25 mg/mL, residues 870–1170; Asp1016Ala mutant) was incubated for 0 to 90 minutes with thermolysin (0.25 mg/mL) at room temperature in 50 mM HEPES pH 6.7, 150 mM NaCl, 5% glycerol, and 2.5 mM CaCl2 in the presence and absence of 30 μM Compound 2. EDTA (final conc 100 mM) was used as stop solution to quench the proteolysis reactions. Samples were separated by use of a Caliper LC90 system and the remaining substrate and product bands were quantitated. Intact (undigested) Tyk2 ran in this system at ~29 kDa. Addition of thermolysin yielded a partial digestion product of ~27 kDa (Additional file 1: Figure 1) within 5 minutes, which was unaffected by addition of Compound 2. Subsequent degradation products were strongly influenced by the presence of Compound 2 (Additional file 1: Figure S1). Therefore the sum of the intensities of the 29 and 27 kDa peaks was used as a measure of inhibitor-dependent resistance to thermolysin digestion. […]
In the absence of inhibitor, a 20 kDa fragment is generated after ~1-5 minutes and subsequently degraded. […] Quantitated values of Tyk2 peaks of ~27 and ~29 kDa during digestion with thermolysin, in the absence or presence of 30 μM Compound 2 were used to monitor overall degradation rates in Figure 2.

[5] = target: T4, thermolysin (Bacillus thermoproteolyticus, UniProt P00800); assay: Digestion of BSA control by thermolysin; format: biochemical; settings: BSA control digested by thermolysin in the same buffer
T4 sequence (P00800 233-548): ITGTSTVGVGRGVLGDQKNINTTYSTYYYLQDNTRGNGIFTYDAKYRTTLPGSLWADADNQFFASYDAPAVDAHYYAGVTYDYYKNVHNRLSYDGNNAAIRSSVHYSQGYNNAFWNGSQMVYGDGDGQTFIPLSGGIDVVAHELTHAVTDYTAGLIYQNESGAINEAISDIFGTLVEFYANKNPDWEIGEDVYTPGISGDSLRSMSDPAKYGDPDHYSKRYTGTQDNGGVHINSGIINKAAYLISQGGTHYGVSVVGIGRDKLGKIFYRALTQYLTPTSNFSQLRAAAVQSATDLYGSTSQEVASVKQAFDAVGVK

[6] = target: T5, human Tyk2 (Homo sapiens, UniProt P29597); assay: trFRET kinase activity assay, Tyk2; format: biochemical; settings: human Tyk2 (880–1185), 1 μM ATP, mean and standard error; read-out: IC50, inhibition of Tyk2 enzyme activity
T5 construct: human Tyk2 enzyme (residues 880–1185); expressed in Sf9 cells; His tag (cleavable); TEV site per construct name His-Tev-huTyk2 (880–1185)-Flag) (N); Flag (C); made in house; host or cells: Sf9 insect cells
T5 sequence (P29597 880-1185): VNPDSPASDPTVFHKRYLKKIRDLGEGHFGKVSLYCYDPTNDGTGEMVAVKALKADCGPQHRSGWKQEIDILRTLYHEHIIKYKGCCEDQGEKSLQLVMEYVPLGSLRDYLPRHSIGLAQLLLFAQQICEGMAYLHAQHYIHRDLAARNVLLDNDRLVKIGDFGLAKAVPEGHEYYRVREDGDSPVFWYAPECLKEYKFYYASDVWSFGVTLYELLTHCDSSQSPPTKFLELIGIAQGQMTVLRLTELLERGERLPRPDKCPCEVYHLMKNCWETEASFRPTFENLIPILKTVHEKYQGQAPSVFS
Procedure: as §1, §2

T1 sequence (P23458 845-1142, species assumed): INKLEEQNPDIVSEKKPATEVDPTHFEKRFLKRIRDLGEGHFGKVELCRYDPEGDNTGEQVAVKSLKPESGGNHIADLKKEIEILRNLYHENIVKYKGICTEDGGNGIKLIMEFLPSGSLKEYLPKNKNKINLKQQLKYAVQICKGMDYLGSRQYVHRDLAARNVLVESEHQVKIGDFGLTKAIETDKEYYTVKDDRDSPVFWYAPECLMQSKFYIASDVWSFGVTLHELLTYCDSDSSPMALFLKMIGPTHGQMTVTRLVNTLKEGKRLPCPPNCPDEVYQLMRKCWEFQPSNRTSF
T3 sequence (O60674 808-1132 limits assumed): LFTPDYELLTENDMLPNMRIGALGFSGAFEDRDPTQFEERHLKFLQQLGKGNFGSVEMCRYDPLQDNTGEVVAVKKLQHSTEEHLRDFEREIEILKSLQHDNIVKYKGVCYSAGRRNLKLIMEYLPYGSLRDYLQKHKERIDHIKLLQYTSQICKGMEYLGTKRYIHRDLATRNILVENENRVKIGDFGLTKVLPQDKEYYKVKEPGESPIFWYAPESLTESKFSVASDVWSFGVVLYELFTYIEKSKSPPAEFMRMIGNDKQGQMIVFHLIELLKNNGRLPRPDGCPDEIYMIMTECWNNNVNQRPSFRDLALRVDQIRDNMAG

Row | Structure (SMILES) | IC50 [1] [nM] | IC50 [2] [nM] | IC50 [3] [nM] | reduction of the rate of degradation of the enzyme to smaller forms (<27 kDa) by thermolysin [4] [fold] | inhibition of thermolysin protease activity (BSA digestion) [5] | IC50 [6] [nM]
1 | Nc1n[nH]c2ccc(-c3ccc(NS(=O)(=O)c4cccc(Cl)c4)cc3)cc12 [Compound 1, N-[4-(3-Amino-1H-indazol-5-yl)-phenyl]-3-chloro-benzenesulfonamide] | 5 ± 0.4 | 42 ± 1 | 7 ± 2 | – | – | –
2 | O=C(Nc1n[nH]c2ccc(-c3ccc(NS(=O)(=O)c4cccc(Cl)c4)cc3)cc12)c1ccco1 [Compound 2, Furan-2-carboxylic acid {5-[4-(3-chloro-benzenesulfonylamino)-phenyl]-1 H-indazol-3-yl}amide] | 10 ± 0.1 | 41 ± 3 | 4 ± 1 | 13 | not an inhibitor of thermolysin protease activity | < 3
